Legend:
[1] = system: total acidity of the gastric secretions; assay: Anti-gastric secretory activity (pylorus ligature, Shay technique); format: in vivo, rat; details: male rats, intraduodenal, 10 mg/kg, 3 hours
Protocol: (1) Determination of the anti-gastric secretory activity.
The technique used is described by H. SHAY et al in Gastroenterology 5, 43, 1945.
Male rats are used weighing about 200 g (10 animals per group), deprived of nourishment for 48 hours, but having as much as desired of an 8% glucose solution. The pylorus of the rats is ligatured, the rats having been lightly anesthetized with ether. Then, at the end of the operation, the compounds under test are administered at various doses, or for the control animals, a 0.5% carboxymethyl cellulose solution is administered by intraduodenal route. Then the abdominal incision is sutured.
Three hours later, the animals are killed and their stomachs are removed after ligature of the oesophagus. The gastric juice is removed and centrifuged. Then the volume is measured; and on 100 μl of gastric juice, the total acidity is determined by titration at pH 7 with N/10 sodium hydroxide.
The percentages of variation of total acidity of the gastric secretions are calculated in relation to the results obtained with the control animals.

[2] = Acute toxicity (LD50), oral route; details: in vivo, mouse
Protocol: (3) Determination of actute toxicity
The lethal dose 50 (LD50) was evaluated after administration of the products by oral route to a mouse.

[3] = system: ulcers in the stomachs of the rats; assay: Anti-ulcer activity, ulcer from stress (constraint and cold); format: in vivo, rat; details: female rats, by probang, 10 mg/kg
Protocol: (2) Determination of anti-ulcer activity
The technique consists of inducing ulcers in the stomachs of the rats through stress (constraint and cold.)
The technique used is described by E. C. SENAY and R. J. LEVINE, Proc. Soc. Exp. Biol. 124, 1221 (1967).
Female rats weighing 150 g are used (5 animals per group), starved for 48 hours with water "ad libitum" and glucose solution for 8 hours. The animals receive the product under test by a probang, or the control animals receive a 0.5% carboxymethyl cellulose solution.
Two hours later, the animals are wrapped up in a wire-netting jacket, their paws are bound and the whole is placed in a refrigerator at 8° C. for two hours. The rats are freed and killed with ether.
Their stomachs are removed, opened along the greater curvature and examined by means of a binocular magnifier; the seriousness of the lesions is rated from 0 to 3 for each stomach.
For each group of rats the average intensity of the ulcerations is calculated, then for each group the degree of ulceration in relation to the controls is determined.
Product 1 is the product of Example 1; Product p is the product of Example 1 of U.S. Pat. No. 4,473,583.

| Structure (SMILES) | Anti-secretory activity: Acid Concentration (% variation in relation to the controls) [1] [%] | LD50 [2] [mg/kg] | Anti-ulcer activity: Ulceration (% variation in relation to the controls) [3] [%] |
| --- | --- | --- | --- |
| COc1ccccc1C(=O)/C=C/C(=O)O [Product 1, (E) 4-(2-methoxyphenyl)-4-oxo-2-butenoic acid] | -78 | 370 | -80 |
| O=C(O)C=CC(=O)c1ccccc1 [p] | -66 | 250 | -54 |

Reference: patent US4867737A, “Derivatives of 4-phenyl-4-oxo-2-butenoic acid their preparation process, their use as medicaments and compositions containing them” (Roussel UCLAF, priority 1986, dated 1989)
